Experimental data: patent US12385900B2, “Method for evaluating cytotoxicity of gas” (DAIKIN INDUSTRIES, LTD., priority 2018, dated 2025)

Assays:
heart = settings: reported / known; cited from earlier work
[1] = test system: Human iPS cell-derived cardiomyocytes (iCell cardiomyocytes^2, CDI); experiment: Cytotoxicity evaluation test: number of beats of cardiomyocytes during gas flow onto the cell culture medium; type: cell-based
Description: Human iPS cell-derived cardiomyocytes (iCell cardiomyocytes^2, CDI) were seeded into a 96-well half-area plate at a density of 40,000 cells/well, followed by culture in an incubator for 7 to 10 days. Subsequently, a Ca indicator (EarlyTox Cardiotoxicity Kit, Molecular Devices) was added at 30 μL/well to the cardiomyocytes. Subsequently, chlorodifluoromethane (Example) or difluoromethane (Reference Example) was allowed to flow onto the surface of the cell culture medium in a closed vessel at a flow rate of 50 mL/min. During the flow, the cell culture medium was maintained at a pH of 7.4, a temperature of 37° C., and an air pressure in the incubator of 101.3 kPa. The number of beats of cardiomyocytes from the start of the flow to 10 minutes after the start of the flow was measured by a fluorescence measurement with a confocal quantitative image cytometer (CQ1, Yokogawa Electric Corporation).

Row | Compound | effects on the heart (heart) | change in the number of beats of cardiomyocytes [1] | Average number of beats (beats/30 sec) ([1]; human, 0 min, pH 7.4) | Average number of beats (beats/30 sec) ([1]; human, 10 min, pH 7.4) | increase in the number of beats ([1]; 10 minutes after the start of the flow) | Average number of beats (beats/30 sec) ([1]; exposure time 0 min (start of flow), gas flow 50 mL/min onto medium surface, pH 7.4, 37° C., 101.3 kPa) | Average number of beats (beats/30 sec) ([1]; exposure time 10 min, gas flow 50 mL/min onto medium surface, pH 7.4, 37° C., 101.3 kPa)
1 | FCF [difluoromethane] | no significant effects on the heart | almost no change | 16.1 beats/30 sec | 16.5 beats/30 sec |  |  | 
2 | FC(F)Cl [chlorodifluoromethane] | has effects on the heart |  |  |  | 74% | 14.5 beats/30 sec | 25.3 beats/30 sec
